Assay results reported in article PMC10182601, “Biological evaluation of novel gemcitabine analog in patient-derived xenograft models of pancreatic cancer” (BMC Cancer, 2023).

Legend:
PPCL-135 cells = experiment: Cell viability (resazurin/Alamar blue), PPCL-135; format: cell-based; conditions: Homo sapiens; 48 h treatment
Description: (§1) PCa primary cell were cultured with Dulbecco's modified Eagle medium (DMEM) with high glucose and L-glutamine and supplemented with 10% fetal bovine serum (FBS) and 1% penicillin–streptomycin (PenStrep). Briefly, PPCL-192, PPCL-135, PPCL-46, and PPCL-68 were seeded at a density of 1 × 10^3 per well in 96-well plates in triplicates for each drug concentration level and incubated at 5% CO2 and a temperature of 37 °C [32]. At 70 -75% confluency, PPCL-192, PPCL-135, PPCL-46, and PPCL-68 cells were treated with GemHCl, 4NSG-free SLN, and 4NSG-SLN. Varying concentrations of 4NSG-SLN and 4NSG-free SLN were prepared by diluting their stock solutions with a growth medium. For GemHCl, a stock solution was prepared with phosphate-buffered saline (PBS) and serially diluted with a growth medium to prepare different concentrations: 3, 6, 12, 25, 50, and 100 µM. The cells were treated with 100 µL of each drug concentration in triplicates and incubated for 48 h. At termination, 20 µL of 0.05% resazurin sodium salt (Alamar blue®) was added and incubated at optimum conditions (5% CO2, 37 °C) for 2–4 h. GloMax® Explorer Multimode Microplate reader with a fluorescence excitation wavelength of 560/580 nm and emission wavelength of 590/610 nm was used to determine the percent viable cells per concentration calculated.

[1] = background statement of the introduction, no reference printed with it; cited from earlier work
PPCL-46 cells = experiment: Cell viability (resazurin/Alamar blue), PPCL-46; format: cell-based; conditions: Homo sapiens; 48 h treatment
Description: as §1

PPCL-68 cells = experiment: Cell viability (resazurin/Alamar blue), PPCL-68; format: cell-based; conditions: Homo sapiens; 48 h treatment
Description: as §1

PPCL-192 cells = experiment: Cell viability (resazurin/Alamar blue), PPCL-192; format: cell-based; conditions: Homo sapiens; 48 h treatment
Description: as §1

[2] = system: pancreatic patient-derived xenograft (PDX) mouse model; parameters: method as in PMID 33015617; conditions: earlier work of the authors ref 22; cited from earlier work
[3] = In vitro metabolic stability of 4NSG in human liver microsomes; format: in vitro ADME; conditions: 4NSG 10 µM, liver microsomes 1 mg protein/mL, 37 °C, end of the 4 h study
Description: (§2) The metabolic stability of 4NSG was examined in the presence of PBS (pH 7.4) and human liver microsomes as previously described. Human liver microsomes were obtained from Sigma-Aldrich. 4NSG (10 µM) was spiked into PBS, or liver microsomes (1 mg protein/mL) and incubated in a shaking water bath at 37 °C for […]. Aliquots (100 µL) were taken after 0, 15, 30, 60, 120, 180, 220 and 240 min of incubation and immediately pretreated with an ice-cold methanolic solution including the internal standard, vortexed for 3 min and centrifuged (12,000 × g, 10 min). Supernatants were stored at -80 C until required for analysis.
(§3) To determine concentrations of 4NSG in PBS and human liver microsomes solutions, supernatants from PBS and human liver microsomes controls were spiked with aliquots of 0.5 μg/ml of 4NSG. The chromatographic analysis was performed according to the method described with minor modifications. The samples were prepared using aliquots of supernatants (10µL) of control (spiked), PBS, and human liver microsomes. […] A plot of the peak areas as a function of 4NSG concentration was plotted, and the linear equation of the calibration curve given as y = mx + c was determined, where y is the peak area, m is the slope, x is the concentration of 4NSG, and c is the y—intercept.

[4] = Stability of 4NSG in PBS (pH 7.4); format: physicochemical; conditions: 4NSG 10 µM, PBS pH 7.4, 37 °C, end of the 4 h study
Description: as §2, §3

[5] = In vitro release of 4NSG (dialysis bag, PBS pH 7.4); format: physicochemical; conditions: PBS pH 7.4, 37 °C
Description: Cumulative in vitro drug release studies were performed as previously described. Free 4NSG (3 mg), freshly prepared and lyophilized 4NSG-SLNs containing approximately 5 mg (suspended in 2 mL PBS) were placed in dialysis bags with molecular weight cut-off (MWCO) of 3.5 kDa) and immersed in their respective labeled 15 mL PBS, (pH 7.4) as the release medium and incubated at 37 °C. The free 4NSG, freshly prepared and lyophilized 4NSG-SLNs solutions were gently stirred at 100 rpm 1 mL aliquots were withdrawn and replenished with fresh PBS (maintained at 37 °C) at 0, 1, 2, 4, 8, and 12 h for analysis. The samples were analyzed for the presence of 4NSG using the HPLC system previously described under the HPLC analysis of 4NSG of the in vitro metabolic stability of the 4NSG section.

| percent unchanged 4NSG in human liver microsomal solution [3] | metabolic stability of 4NSG in PBS [4] [%] | further 4NSG release in the next 2 h ([5]; 2 h to 4 h, dialysis bag) [%] | cumulative 4NSG release within the first 2 h ([5]; dialysis bag MWCO 3.5 kDa) | SMILES | IC50 (PPCL-135 cells) [µM] | plasma circulation half-life [1] [min] | IC50 (PPCL-46 cells) [µM] | IC50 (PPCL-68 cells) [µM] | IC50 (PPCL-192 cells) [µM] | morphological changes to mice's liver and kidney tissues [2] | tumor growth in pancreatic PDX mouse model [2] |
| --- | --- | --- | --- | --- | --- | --- | --- | --- | --- | --- | --- |
| – | – | – | – | Nc1ccn([C@@H]2O[C@H](CO)[C@@H](O)C2(F)F)c(=O)n1 [Gem, Gemcitabine] | 56 ± 1.5 | < 15 | 56 ± 1.8 | 57 ± 2.4 | 57 ± 1.5 | – | – |
| about 90% | 99 | 20 | about 60% | CCCCCCCCCCCCCCCCCC(=O)Nc1ccn([C@@H]2OC(CO)C(O)C2(F)F)c(=O)n1 (some centres unmarked) [4NSG, 4-(N)-stearoyl-gemcitabine] | – | – | – | – | – | no morphological changes | remarkably reduced tumor growth |
